Results: patent US4482548A, “Analgesic pharmaceutical compositions containing 5-phenyl-1,4-benzo diazepine compounds and a method of using same” (Kali-Chemie Pharma GmbH, priority 1982, dated 1984)

Assays:
arthritis pain in rats = assay: Arthritis pain test on rats (suppression of the arthritis pain in rats); type: in vivo, male rats of the OFA strain; conditions: Rattus norvegicus, po, 3 h after administration; dosage protecting 50% of the treated animals against pain
Method: (§1) Such tests, for instance, compare the pain allaying effect of the test compound in the arthritis pain test with the sedative and muscle relaxing effects which impair the normal activity of rats.
1. Arthritis pain test on rats.
Male rats of the OFA strain, weighing between 160 g. and 180 g. are anesthetized by intraperitoneal administration of 20 mg./kg. of Pentobarbital Sodium. 0.1 ml. of a suspension of 0.6 mg. of Mycobacterium Smegmae (SI043) in paraffin oil are injected intracutaneously into the left hind paw of the rats. Fourteen days thereafter, when a pronounced secondary arthritis has developed especially in the right hind paw of the rats, the effects of the test compounds are investigated. For this purpose a control measurement is carried out thirty minutes before administration of the compound to be tested by deflecting three times the ankle joints of the right hind paws of the test animals and counting the number of distress sounds emitted by them. […] The ankle joint deflecting procedure is repeated three hours after oral administration of the compounds to be tested. Animals which emit distress sounds either only once or not at all are considered as being protected against pain. The dosage by which protection against pain is achieved in 50% of the treated animals is designated as the effective dosage ED50.

[1] = Inhibition of the locomotion exploratory activity according to Janssen (suppression of the locomotor exploration activity on rats); design: species or system male rats of the Sprague-Dawley type; conditions: rat, in vivo, po, 1 h before test; dosage corresponding to 9 points for six pairs of rats
Description: as §1
2. Determination of the inhibition of the locomotion exploratory activity according to the method described by Janssen in "Psychopharmakologie", vol. 1 (1961), pages 141-146.
The compound to be tested is orally administered in the form of a suspension in 2% Tylose solution to male rats of the Sprague-Dawley type one hour before starting the test. Six pairs of rats are used for each dosage to be administered. Each pair of rats is then placed into an environment which is entirely unknown to them. The locomotor activity of said rats with respect to the exploration and inquisitiveness phase within the first thirty seconds is observed and recorded by two observers. The observed activity is evaluated according to a point system. According to said system the highest possible number of points for six pairs of rats amounts to 18 points. That dosage which corresponds to 9 points for six pairs of rats is designated as ED50.

Acute toxicity on mice = conditions: mouse, in vivo, po, read-out: Acute toxicity on mice ED50

Question: What does the source list for `CN1C(=O)CN=C(c2ccccc2)c2cc(Cl)ccc21` [Diazepam, 7-chloro-1-methyl-5-phenyl-1,3-dihydro-2H-1,4-benzo diazepin-2-one, reference compound]?
Answer: ED50 (arthritis pain in rats): 6.2 mg/kg; ED50 at 1 h [1]: 11.5 mg/kg

Question: What does the source list for `COCC1CN=C(c2ccccc2Cl)c2cc(Br)ccc2N1C` (centres unmarked) [compound 1, 1-methyl-7-bromo-2-methoxy methyl-5-(2-chlorophenyl)-1H-2,3-dihydro-1,4-benzo diazepine]?
Answer: ED50 (arthritis pain in rats): 4.8 mg/kg; ED50 at 1 h [1]: 56.2 mg/kg; LD50 (Acute toxicity on mice): 2390 mg/kg

Question: Which ED50 (arthritis pain in rats) does the source give for `COCC1CN=C(c2ccccc2Cl)c2cc(Cl)ccc2N1C` (centres unmarked) [compound 2, 1-methyl-7-chloro-2-methoxy methyl-5-(2-chlorophenyl)-1H-2,3-dihydro-1,4-benzo diazepine] here?
Answer: The ED50 was 10 mg/kg.

Question: What about the ED50 at 1 h [1] of the same compound?
Answer: Its ED50 at 1 h is 55.5 mg/kg.

Question: What about the LD50 (Acute toxicity on mice) of the same compound?
Answer: The LD50 was 1470 mg/kg.
